In patent publication US20260062443A1 (ALEXION PHARMACEUTICALS, INC., priority 2022, published 2026):

target: T1, Human complement C1s enzyme (Homo sapiens, UniProt P09871); assay: Human C1s enzyme assay; assay type: biochemical; settings: human complement C1s enzyme 1.16 nM, substrate Z-L-Lys-SBzl 100 μM, 5 min preincubation; read-out: IC50 (Stars), C1s Inhibiting Activity
T1 sequence (P09871 438-688 limits assumed): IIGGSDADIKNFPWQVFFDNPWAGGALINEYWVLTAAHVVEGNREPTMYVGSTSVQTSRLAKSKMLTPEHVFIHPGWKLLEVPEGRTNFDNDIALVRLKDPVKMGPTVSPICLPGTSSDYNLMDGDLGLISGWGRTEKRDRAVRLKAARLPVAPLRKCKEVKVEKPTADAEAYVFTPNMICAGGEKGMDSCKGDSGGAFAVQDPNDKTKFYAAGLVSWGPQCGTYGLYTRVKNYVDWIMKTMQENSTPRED
T1 sequence (P09871 16-437 partner limits assumed): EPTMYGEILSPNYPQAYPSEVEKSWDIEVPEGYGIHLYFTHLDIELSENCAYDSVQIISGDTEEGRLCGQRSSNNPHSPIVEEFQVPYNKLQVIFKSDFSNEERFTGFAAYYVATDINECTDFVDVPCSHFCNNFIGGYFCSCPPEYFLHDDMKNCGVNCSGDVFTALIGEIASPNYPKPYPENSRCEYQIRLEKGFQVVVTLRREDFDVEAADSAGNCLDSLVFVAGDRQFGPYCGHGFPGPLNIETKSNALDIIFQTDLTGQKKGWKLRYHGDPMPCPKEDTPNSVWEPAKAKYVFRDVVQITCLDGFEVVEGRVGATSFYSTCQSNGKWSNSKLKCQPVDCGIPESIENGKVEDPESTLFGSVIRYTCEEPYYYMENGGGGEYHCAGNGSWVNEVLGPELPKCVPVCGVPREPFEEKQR
In short: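 IC50 from nonlinear regression of reaction rates versus compound concentration, with rates taken from A405 recorded at 30 s intervals over 30 min after adding 100 μM Z-L-Lys-SBzl plus 100 μM DTNB. Enzyme was human C1s purified from serum, 1.16 nM, given 5 min compound preincubation at room temperature, pH 7.5 Tris/1 M NaCl.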

| SMILES | IC50 [nM] |
| --- | --- |
| C[C@@]12C[C@@H]1N(C(=O)CNC(=O)c1ccc3c(c1)Oc1ccccc1S3)[C@H](C(=O)NCc1cccc(B(O)O)c1)C2 [Compound 250, (3-(((1S,3S,5S)-5-methyl-2-((phenoxathiine-3-carbonyl)glycyl)-2-azabicyclo[3.1.0]hexane-3-carboxamido)methyl)phenyl) boronic acid] | > 1000 |
| C[C@@H](NC(=O)[C@@H]1C[C@]2(CO)C[C@@H]2N1C(=O)CNC(=O)c1ccc2c(c1)Oc1ccccc1S2)c1cc2cnccc2[nH]1 [Compound 161, (1S,3S,5R)-N-((R)-1-(1H-pyrrolo[3,2-c]pyridin-2-yl)ethyl)-5-(hydroxymethyl)-2-((phenoxathiine-3-carbonyl)glycyl)-2-azabicyclo[3.1.0]hexane-3-carboxamide] | < 100 |
| O=C(NCC(=O)N1C[C@H](OC(F)F)C[C@H]1C(=O)NCc1ccc2c(c1)NCC2)c1ccc2c(c1)Oc1ccccc1S2 [Compound 198, (2S,4R)-4-(difluoromethoxy)-N-(indolin-6-ylmethyl)-1-((phenoxathiine-3-carbonyl)glycyl)pyrrolidine-2-carboxamide] | > 1000 |
| C[C@@H](NC(=O)[C@@H]1C[C@@H](S(C)(=O)=O)CN1C(=O)CNC(=O)c1ccc2c(c1)-c1ccccc1C2(F)F)c1cc2cnccc2[nH]1 [Compound 72, (2S,4R)-N-((R)-1-(1H-pyrrolo[3,2-c]pyridin-2-yl)ethyl)-1-((9,9-difluoro-9H-fluorene-3-carbonyl)glycyl)-4-(methylsulfonyl)pyrrolidine-2-carboxamide] | < 100 |
| O=C(NCC(=O)N1C[C@H](OC(F)F)C[C@H]1C(=O)NCc1cc2cnccc2[nH]1)c1cc(-c2ccccc2)cs1 [Compound 379, (2S,4R)-N-((1H-pyrrolo[3,2-c]pyridin-2-yl)methyl)-4-(difluoromethoxy)-1-((4-phenylthiophene-2-carbonyl)glycyl)pyrrolidine-2-carboxamide] | < 100 |
| C[C@@]12C[C@@H]1N(C(=O)CNC(=O)CCCOc1ccccc1)[C@H](C(=O)N[C@@H]1CCN(C(=O)CCN)C1)C2 [Compound 60, (1S,3S,5S)-N-((R)-1-(3-aminopropanoyl)pyrrolidin-3-yl)-5-methyl-2-((4-phenoxybutanoyl)glycyl)-2-azabicyclo[3.1.0]hexane-3-carboxamide] | > 1000 |
| O=C(NCC(=O)N1CCC[C@H]1C(=O)NCc1cc2cnccc2[nH]1)c1ccc2c(c1)Oc1ccccc1S2 [Compound 188, (S)-N-((1H-pyrrolo[3,2-c]pyridin-2-yl)methyl)-1-((phenoxathiine-3-carbonyl)glycyl)pyrrolidine-2-carboxamide] | < 100 |
| O=C(NCC(=O)N1C[C@@](F)(CF)C[C@H]1C(=O)NCc1cc2cnccc2[nH]1)c1ccc2c(c1)-c1ccccc1C2(F)F [Compound 6, (2S,4R)-N-((1H-pyrrolo[3,2-c]pyridin-2-yl)methyl)-1-((9,9-difluoro-9H-fluorene-3-carbonyl)glycyl)-4-fluoro-4-(fluoromethyl)pyrrolidine-2-carboxamide] | < 100 |
| C[C@@]12C[C@@H]1N(C(=O)CNC(=O)CCCOc1ccccc1)[C@H](C(=O)NC1(c3nc4cnccc4[nH]3)CC1)C2 [Compound 109, (1S,3S,5S)-N-(1-(1H-imidazo[4,5-c]pyridin-2-yl)cyclopropyl)-5-methyl-2-((4-phenoxybutanoyl)glycyl)-2-azabicyclo[3.1.0]hexane-3-carboxamide] | > 1000 |
| C[C@@]12C[C@@H]1N(C(=O)CNC(=O)c1ccc(Oc3ccc(C(F)(F)F)cc3)cc1)[C@H](C(=O)NCc1cc3cnccc3[nH]1)C2 [Compound 139, (1S,3S,5S)-N-((1H-pyrrolo[3,2-c]pyridin-2-yl)methyl)-5-methyl-2-((4-(4-(trifluoromethyl)phenoxy)benzoyl)glycyl)-2-azabicyclo[3.1.0]hexane-3-carboxamide] | 100 to 1000 |
| C[C@@]12C[C@@H]1N(C(=O)CNC(=O)CCCOc1ccccc1)[C@H](C(=O)NC1CN(C(=O)[C@H]3CNCCN3)C1)C2 [Compound 296, (1S,3S,5S)-5-methyl-2-((4-phenoxybutanoyl)glycyl)-N-(1-((R)-piperazine-2-carbonyl)azetidin-3-yl)-2-azabicyclo[3.1.0]hexane-3-carboxamide] | > 1000 |
| C[C@@]12C[C@@H](C(=O)NCc3cc4cnccc4[nH]3)N(C(=O)CNC(=O)c3cccc(Oc4ccc(F)cc4)c3)[C@@H]1C2 [Compound 155, (1R,3S,5R)-N-((1H-pyrrolo[3,2-c]pyridin-2-yl)methyl)-2-((3-(4-fluorophenoxy)benzoyl)glycyl)-5-methyl-2-azabicyclo[3.1.0]hexane-3-carboxamide] | 100 to 1000 |
| Cc1nccc2[nH]c(CNC(=O)[C@@H]3C[C@]4(C)C[C@@H]4N3C(=O)CNC(=O)c3ccc4c(c3)Oc3ccccc3S4)cc12 [Compound 267, (1S,3S,5S)-5-methyl-N-((4-methyl-1H-pyrrolo[3,2-c]pyridin-2-yl)methyl)-2-((phenoxathiine-3-carbonyl)glycyl)-2-azabicyclo[3.1.0]hexane-3-carboxamide] | > 1000 |
| C[C@@]12C[C@@H]1N(C(=O)CNC(=O)CCCOc1ccccc1)[C@H](C(=O)N[C@H]1CCn3c(CN)ccc31)C2 [Compound 69, (1S,3S,5S)-N-((S)-5-(aminomethyl)-2,3-dihydro-1H-pyrrolizin-1-yl)-5-methyl-2-((4-phenoxybutanoyl)glycyl)-2-azabicyclo[3.1.0]hexane-3-carboxamide] | > 1000 |
| COC[C@H]1C[C@@H](C(=O)NCc2cc3cnccc3[nH]2)N(C(=O)CNC(=O)c2cccc(Oc3ccc(C)cc3F)c2)C1 [Compound 367, (2S,4S)-N-((1H-pyrrolo[3,2-c]pyridin-2-yl)methyl)-1-((3-(2-fluoro-4-methylphenoxy)benzoyl)glycyl)-4-(methoxymethyl)pyrrolidine-2-carboxamide] | < 100 |
| O=C(NCC(=O)N1C[C@H](OC(F)F)C[C@H]1C(=O)NCc1ccc2nc[nH]c2c1)c1ccc2c(c1)Oc1ccccc1S2 [Compound 193, (2S,4R)-N-((1H-benzo[d]imidazol-6-yl)methyl)-4-(difluoromethoxy)-1-((phenoxathiine-3-carbonyl)glycyl)pyrrolidine-2-carboxamide] | > 1000 |
| C[C@@H](NC(=O)[C@@H]1C[C@](F)(Cn2ccnc2)CN1C(=O)CNC(=O)c1ccc2c(c1)Oc1ccccc1S2)c1cc2cnccc2[nH]1 [Compound 217, (2S,4S)-4-((1H-imidazol-1-yl)methyl)-N-((R)-1-(1H-pyrrolo[3,2-c]pyridin-2-yl)ethyl)-4-fluoro-1-((phenoxathiine-3-carbonyl)glycyl)pyrrolidine-2-carboxamide] | < 100 |
| O=C(NCC(=O)N1CC2(C[C@H]1C(=O)NCc1cc3cnccc3[nH]1)OCCO2)c1ccc2c(c1)sc1ccccc12 [Compound 179, (S)-N-((1H-pyrrolo[3,2-c]pyridin-2-yl)methyl)-7-((dibenzo[b,d]thiophene-3-carbonyl)glycyl)-1,4-dioxa-7-azaspiro[4.4]nonane-8-carboxamide] | < 100 |
| O=C(NCc1cc2cnccc2[nH]1)[C@@H]1CC2(CN1C(=O)CN1Cc3cc(-c4ccc(F)cc4)ccc3C1=O)OCCO2 [Compound 121, (S)-N-((1H-pyrrolo[3,2-c]pyridin-2-yl)methyl)-7-(2-(5-(4-fluorophenyl)-1-oxoisoindolin-2-yl)acetyl)-1,4-dioxa-7-azaspiro[4.4]nonane-8-carboxamide] | 100 to 1000 |
| O=C(NCC(=O)N1C[C@@](F)(CF)C[C@H]1C(=O)NCc1cc2cnccc2[nH]1)c1ccc2c(c1)Oc1ccccc1S2 [Compound 26, (2S,4R)-N-((1H-pyrrolo[3,2-c]pyridin-2-yl)methyl)-4-fluoro-4-(fluoromethyl)-1-((phenoxathiine-3-carbonyl)glycyl)pyrrolidine-2-carboxamide] | < 100 |
| C[C@@H](NC(=O)[C@@H]1CC2(CN1C(=O)CN1Cc3cc(-c4ccc(F)cc4)ccc3C1=O)OCCO2)c1cc2cnccc2[nH]1 [Compound 123, (S)-N-((R)-1-(1H-pyrrolo[3,2-c]pyridin-2-yl)ethyl)-7-(2-(5-(4-fluorophenyl)-1-oxoisoindolin-2-yl)acetyl)-1,4-dioxa-7-azaspiro[4.4]nonane-8-carboxamide] | 100 to 1000 |
| COC[C@@]1(F)C[C@@H](C(=O)NCc2cc3cnccc3[nH]2)N(C(=O)CNC(=O)c2ccc3c(c2)Oc2ccccc2S3)C1 [Compound 25, (2S,4R)-N-((1H-pyrrolo[3,2-c]pyridin-2-yl)methyl)-4-fluoro-4-(methoxymethyl)-1-((phenoxathiine-3-carbonyl)glycyl)pyrrolidine-2-carboxamide] | < 100 |
| C[C@@H](NC(=O)[C@@H]1CC2(CC2)CN1C(=O)CNC(=O)c1ccc2c(c1)Oc1ccccc1S2)c1cc2cnccc2[nH]1 [Compound 190, (S)-N-((R)-1-(1H-pyrrolo[3,2-c]pyridin-2-yl)ethyl)-5-((phenoxathiine-3-carbonyl)glycyl)-5-azaspiro[2.4]heptane-6-carboxamide] | < 100 |
